Data as given in article PMC4122235 (Biochimica et biophysica acta, 2014).
pKd: −log10 of the molar value. Like-named read-outs stand apart in the source and are kept apart here.

Assays:
CacKam = CacKam (Catenulispora acidiphila, UniProt C7Q5P8); test: biochemical; type: binding
CarKam = test: isothermal titration calorimetry, single-site fit; type: binding, Candidatus Arthromitus sp. SFB-mouse-NYU; settings: 25 °C, 20 mM Tris pH 7.5, 10 mM magnesium acetate, 250 mM NH4Cl, 10 % glycerol, 6 mM β-mercaptoethanol, no 30S subunit
TcuKam = TcuKam (Thermomonospora curvata, UniProt D1A6K4); test: biochemical; type: binding
(UniProt K2DC64) = test: biochemical

| SMILES | pKd (CacKam) | Kd (CarKam; read-out: Kd (μM) / SAH) [µM] | pKd (TcuKam) | Kd (CarKam; read-out: Kd (μM) / SAM) [µM] | pKd ((UniProt K2DC64)) |
| --- | --- | --- | --- | --- | --- |
| Nc1ncnc2c1ncn2[C@@H]1O[C@H](CSCC[C@H](N)C(=O)O)[C@@H](O)[C@H]1O [SAH] | 5.57 | 4.1 | 5.72 | – | – |
| C[S+](CC[C@H](N)C(=O)O)C[C@H]1O[C@@H](n2cnc3c(N)ncnc32)[C@H](O)[C@@H]1O (stereo partly shown) [SAM] | 4.36 | – | 4.89 | 24 | 4.12 |
